Test results as given in US8952024B2, “Herbicidal pyrimidone derivatives” (E I du Pont de Nemours and Company, priority 2009, dated 2015).
Read-outs that look alike come from different tables or passages of the source.

Tests used:
Format in all cases: in vivo
[1] = system: windgrass (Apera spica-venti); test: Test B postemergence plant response; settings: for Windgrass plant response rating (0 to 100 scale): 62 g ai/ha, 0 is no effect, 13 to 15 days
In short: (§1)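 Plants grown in peat/vermiculite medium were sprayed postemergence at 2–18 cm height (1- to 4-leaf stage). After 13–15 days in the greenhouse, response was rated visually against untreated controls on a 0–100 scale (0 no effect, 100 complete control).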

[2] = system: winter barley (Hordeum vulgare); test: Test B postemergence plant response; settings: for Barley plant response rating (0 to 100 scale): 62 g ai/ha, 0 is no effect, 13 to 15 days
In short: as §1

[3] = system: canarygrass (Phalaris minor); test: Test B postemergence plant response; settings: for Canarygrass plant response rating (0 to 100 scale): 62 g ai/ha, 0 is no effect, 13 to 15 days
In short: as §1

[4] = system: chickweed (Stellaria media); test: Test B postemergence plant response; settings: for Chickweed plant response rating (0 to 100 scale): 62 g ai/ha, 0 is no effect, 13 to 15 days
In short: as §1

[5] = system: wheat (Triticum aestivum); test: Test A pre-/postemergence plant response; settings: for plant injury at 125 g/ha / plant injury at 500 g/ha: Triticum aestivum, 240 h, read-out: Plant response rating, Wheat
In short: (§2)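 Injury was scored visually after roughly ten days against untreated controls, 0 = no effect, 100 = complete control. Test chemicals in a surfactant-containing non-phytotoxic solvent were sprayed either onto soil preemergence or onto one- to two-leaf, 2–10 cm plants postemergence.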

[6] = system: barnyardgrass (Echinochloa crus-galli); test: Test A pre-/postemergence plant response; settings: for pest or weed control at 125 g/ha / pest or weed control at 500 g/ha: Echinochloa crus-galli, 240 h, read-out: Plant response rating, Barnyardgrass
In short: as §2

[7] = system: velvetleaf (Abutilon theophrasti); test: Test A pre-/postemergence plant response; settings: for pest or weed control at 125 g/ha / pest or weed control at 500 g/ha: Abutilon theophrasti, 240 h, read-out: Plant response rating, Velvetleaf
In short: as §2

[8] = system: giant foxtail (Setaria faberii); test: Test A pre-/postemergence plant response; settings: for pest or weed control at 125 g/ha / pest or weed control at 500 g/ha: Setaria faberi, 240 h, read-out: Plant response rating, Foxtail, Giant
In short: as §2

corn (Zea mays) = test: Test A pre-/postemergence plant response; settings: for Corn plant response rating (crop injury, 0 = no effect, 100 = complete kill) at 125 g/ha / Corn plant response rating (crop injury, 0 = no effect, 100 = complete kill) at 500 g/ha: Zea mays, 240 h
In short: as §2

[9] = system: large crabgrass (Digitaria sanguinalis); test: Test A pre-/postemergence plant response; settings: for pest or weed control at 125 g/ha / pest or weed control at 500 g/ha: Digitaria sanguinalis, 240 h, read-out: Plant response rating, Crabgrass, Large
In short: as §2

[10] = postemergence, 100 is complete control
[11] = post-emergence, Postemergence, 125 g ai/ha, 0 to 100 scale where 0 is no effect and 100 is complete control
[12] = post-emergence, Postemergence, 500 g ai/ha, 0 to 100 scale, 0 = no effect, 100 = complete control, approx. ten days
[13] = pre-emergence, Preemergence, 125 g ai/ha, 0 to 100 scale, 0 = no effect, 100 = complete control
[14] = pre-emergence, Preemergence, 500 g ai/ha, visual injury, 0 to 100 scale (0 no effect, 100 complete control), approx. ten days
[15] = Postemergence, 125 g ai/ha, scale 0 to 100 (0 no effect, 100 complete control)
[16] = Postemergence, 250 g ai/ha, scale 0 to 100 (0 no effect, 100 complete control)
[17] = 31 g ai/ha, postemergence, scale 0 to 100, 0 is no effect, 100 is complete control
[18] = Postemergence, 125 g ai/ha, 0 to 100 scale where 0 is no effect and 100 is complete control
[19] = Postemergence, 500 g ai/ha, 0 to 100 scale, 0 = no effect, 100 = complete control, approx. ten days
[20] = Preemergence, 125 g ai/ha, 0 to 100 scale, 0 = no effect, 100 = complete control
[21] = Preemergence, 500 g ai/ha, visual injury, 0 to 100 scale (0 no effect, 100 complete control), approx. ten days

Structure (SMILES): COCCn1c(-c2ccsc2)ncc(C(=O)C2=C(O)CCCC2=O)c1=O [Compound 97, 5-[(2-hydroxy-6-oxo-1-cyclohexen-1-yl)carbonyl]-3-(2-methoxyethyl)-2-(3-thienyl)-4(3H)-pyrimidinone]
- Windgrass plant response rating (0 to 100 scale) [1, 10]: 50
- pest or weed control at 31 g/ha ([1]; Apera spica-venti, post-emergence, 360 h, 31 g ai/ha, postemergence, scale 0 to 100, 0 is no effect, 100 is complete control, read-out: Plant response rating, Windgrass): 5%
- pest or weed control at 250 g/ha ([1]; Apera spica-venti, post-emergence, 360 h, Postemergence, 250 g ai/ha, scale 0 to 100 (0 no effect, 100 complete control), read-out: Plant response rating, Windgrass): 85%
- Barley plant response rating (0 to 100 scale) [2, 10]: 0
- plant injury at 31 g/ha ([2]; Hordeum vulgare, post-emergence, 31 g ai/ha, postemergence, scale 0 to 100, 0 is no effect, 100 is complete control, read-out: Plant response rating, Barley): 0%
- plant injury at 125 g/ha ([2]; Hordeum vulgare, post-emergence, Postemergence, 125 g ai/ha, visual rating after 13 to 15 days, scale 0 (no effect) to 100 (complete control)): 0%
- plant injury at 250 g/ha ([2]; Hordeum vulgare, post-emergence, Postemergence, 250 g ai/ha, scale 0 to 100 (0 no effect, 100 complete control), read-out: Plant response rating, Barley): 5%
- Canarygrass plant response rating (0 to 100 scale) [3, 10]: 10
- pest or weed control at 31 g/ha ([3]; Phalaris minor, post-emergence, 360 h, 31 g ai/ha, postemergence, scale 0 to 100, 0 is no effect, 100 is complete control, read-out: Plant response rating, Canarygrass): 0%
- pest or weed control at 125 g/ha ([3]; Phalaris minor, post-emergence, 360 h, Postemergence, 125 g ai/ha, visual rating after 13 to 15 days, scale 0 (no effect) to 100 (complete control)): 10%
- pest or weed control at 250 g/ha ([3]; Phalaris minor, post-emergence, 360 h, Postemergence, 250 g ai/ha, scale 0 to 100 (0 no effect, 100 complete control), read-out: Plant response rating, Canarygrass): 30%
- Chickweed plant response rating (0 to 100 scale) [4, 10]: 100
- pest or weed control at 31 g/ha ([4]; Stellaria media, post-emergence, 360 h, 31 g ai/ha, postemergence, scale 0 to 100, 0 is no effect, 100 is complete control, read-out: Plant response rating, Chickweed): 95%
- pest or weed control at 125 g/ha ([4]; Stellaria media, post-emergence, 360 h, Postemergence, 125 g ai/ha, visual rating after 13 to 15 days, scale 0 (no effect) to 100 (complete control)): 100%
- pest or weed control at 250 g/ha ([4]; Stellaria media, post-emergence, 360 h, Postemergence, 250 g ai/ha, scale 0 to 100 (0 no effect, 100 complete control), read-out: Plant response rating, Chickweed): 100%
- plant injury at 125 g/ha [5, 11]: 0%
- plant injury at 500 g/ha [5, 12]: 20%
- plant injury at 125 g/ha [5, 13]: 0%
- plant injury at 500 g/ha [5, 14]: 0%
- pest or weed control at 125 g/ha [6, 11]: 90%
- pest or weed control at 500 g/ha [6, 12]: 90%
- pest or weed control at 125 g/ha [6, 13]: 60%
- pest or weed control at 500 g/ha [6, 14]: 100%
- pest or weed control at 125 g/ha [7, 11]: 100%
- pest or weed control at 500 g/ha [7, 12]: 100%
- pest or weed control at 125 g/ha [7, 13]: 100%
- pest or weed control at 500 g/ha [7, 14]: 100%
- pest or weed control at 125 g/ha [8, 11]: 60%
- pest or weed control at 500 g/ha [8, 12]: 80%
- pest or weed control at 125 g/ha [8, 13]: 60%
- pest or weed control at 500 g/ha [8, 14]: 90%
- Corn plant response rating (crop injury, 0 = no effect, 100 = complete kill) at 125 g/ha (corn (Zea mays); [11]): 50%
- Corn plant response rating (crop injury, 0 = no effect, 100 = complete kill) at 500 g/ha (corn (Zea mays); [12]): 80%
- Corn plant response rating (crop injury, 0 = no effect, 100 = complete kill) at 125 g/ha (corn (Zea mays); [13]): 0%
- Corn plant response rating (crop injury, 0 = no effect, 100 = complete kill) at 500 g/ha (corn (Zea mays); [14]): 0%
- pest or weed control at 125 g/ha [9, 11]: 80%
- pest or weed control at 500 g/ha [9, 12]: 100%
- pest or weed control at 125 g/ha [9, 13]: 100%
- pest or weed control at 500 g/ha [9, 14]: 100%

Structure (SMILES): O=C1CCCC(O)=C1C(=O)c1cnc(-c2ccsc2)n(CC2CCCO2)c1=O (stereo not drawn) [Compound 98]
- Windgrass plant response rating (0 to 100 scale) [1, 10]: 20
- Plant response rating, Windgrass [1, 15]: 50
- Plant response rating, Windgrass [1, 16]: 70
- Plant response rating, Barley [2, 17]: 0
- Barley plant response rating (0 to 100 scale) [2, 10]: 5
- Plant response rating, Barley [2, 15]: 10
- Plant response rating, Barley [2, 16]: 15
- Plant response rating, Canarygrass [3, 17]: 5
- Canarygrass plant response rating (0 to 100 scale) [3, 10]: 20
- Plant response rating, Canarygrass [3, 15]: 35
- Plant response rating, Canarygrass [3, 16]: 50
- Plant response rating, Chickweed [4, 17]: 80
- Chickweed plant response rating (0 to 100 scale) [4, 10]: 80
- Plant response rating, Chickweed [4, 15]: 98
- Plant response rating, Chickweed [4, 16]: 100
- Plant response rating, Wheat [5, 18]: 0
- Plant response rating, Wheat [5, 19]: 20
- Plant response rating, Wheat [5, 20]: 0
- Plant response rating, Wheat [5, 21]: 0
- Plant response rating, Barnyardgrass [6, 18]: 80
- Plant response rating, Barnyardgrass [6, 19]: 90
- Plant response rating, Barnyardgrass [6, 20]: 0
- Plant response rating, Barnyardgrass [6, 21]: 60
- Plant response rating, Velvetleaf [7, 18]: 100
- Plant response rating, Velvetleaf [7, 19]: 100
- Plant response rating, Velvetleaf [7, 20]: 90
- Plant response rating, Velvetleaf [7, 21]: 100
- Plant response rating, Foxtail, Giant [8, 18]: 70
- Plant response rating, Foxtail, Giant [8, 19]: 90
- Plant response rating, Foxtail, Giant [8, 20]: 40
- Plant response rating, Foxtail, Giant [8, 21]: 80
- Plant response rating, Corn (corn (Zea mays); [18]): 0
- Plant response rating, Corn (corn (Zea mays); [19]): 60
- Plant response rating, Corn (corn (Zea mays); [20]): 0
- Plant response rating, Corn (corn (Zea mays); [21]): 0
- Plant response rating, Crabgrass, Large [9, 18]: 90
- Plant response rating, Crabgrass, Large [9, 19]: 100
- Plant response rating, Crabgrass, Large [9, 20]: 90
- Plant response rating, Crabgrass, Large [9, 21]: 100
